Consider 4 compounds from paper PMC6891695, “Evaluation of Antifouling Potential and Ecotoxicity of Secondary Metabolites Derived from Red Algae of the Genus Laurencia” (Marine Drugs, 2019).

The structures appear in SMILES notation.

Series [1] concerns HEK293 cell line. Nature of the series: HEK293 alamar blue/resazurin assay (mitochondria function). The series is classed as cell-based, human. The conditions noted are these: for EC50: Homo sapiens, HEK293, Alamar blue/Resazurin assay, 48 h incubation; for effect on mitochondrial function and metabolism (in words): HEK293. How it is done: The RTL-W1 cell line, a non-transformed rainbow trout liver cell line that has already been used in environmental toxicity assays, was established from the normal liver of an adult rainbow trout by proteolytic dissociation of liver fragments. RTL-W1 cells were cultured in 75 cm^2 culture flasks (Orange Scientific, Braine l’Alleud, Belgium) at 20 °C in Leibovitz’s (L-15, Sigma-Aldrich, St. Louis, MO, USA) medium supplemented with 5% fetal bovine serum (FBS) and 1% L-glutamine in CO2-free incubator. For the cytotoxicity assays of the selected secondary metabolites, cells were seeded at 3 × 10^4 cells/well density in a 96-well tissue culture plate (Orange Scientific Braine l’Alleud, Belgium) in 100 μL culture medium/well for 2 days before the assays. Three different cytotoxicity protocols were used: 1) The alamar blue/resazurin fluorometric/colorimetric cell viability assay to assess the metabolic capacity and mitochondrial function; 2) the crystal violet cell viability assay for indirect quantification of cell death; and 3) the neutral red cell proliferation assay for lysosomal activity. Two days after seeding the cells, cultures were incubated with various concentrations of selected secondary metabolites at 20 °C for 48 h before cell viability was assessed. […] For the alamar blue/resazurin fluorometric/colorimetric cell viability assay, 100 μL of 3 μg/100 μL Resazurin sodium salt (Sigma-Aldrich, St. Louis, MO, USA) in incubation medium was added on each well and incubated under sterile conditions at 20 °C for 4 h. For the crystal violet cell viability assay, after 48 h of incubation with each secondary metabolite, the culture medium was aspirated and cells were washed twice with sterile dd. H2O. The final wash was aspirated and 50 μL of 0.5% (w/v) crystal violet staining solution (20% methanol in dd. H2O) was added to each well followed by incubation for 20 min at room temperature on a bench rocker with a frequency of 20 oscillations per minute. The staining solution was then aspirated and the plate was washed four times with sterile dd. H2O and left to air-dry without its lid for 3 h at room temperature. Next, 200 μL of methanol was added to each well, and the plate was incubated with its lid on for 20 min at room temperature on a bench rocker with a frequency of 20 oscillations per minute. For the neutral red cell proliferation assay, after 48 h of incubation with each secondary metabolite, the culture medium was aspirated and cells were washed twice with phosphate-buffered saline (PBS, pH 7.4). Cells were then incubated with 100 μL of a 40 μg/mL neutral red staining solution in culture medium at 20 °C for 4 h followed by two washes with 150 μL of PBS. Then cells were incubated with 100 μL neutral red destain solution (50% ethanol, 49% dd. H2O, 1% glacial acetic acid) for 10 min on a bench rocker with a frequency of 80 oscillations per minute. Absorbance was read at 570 nm for alamar blue/resazurin and crystal violet and at 540 nm for neutral red using a Tecan infinite M200 Pro microplate reader. For each assay and each secondary metabolite, a minimum of four independent dose–response experiments with three replicates each were carried out. Calculations were carried out using detailed formulas (AbCam, Cambridge, UK, and results were analyzed with GraphPad Prism v.6.
HEK293 cells, a human embryotic kidney cell line, were obtained from ATCC (ATCC® CRL-1573™) at passage 37 of the original clone and used at passage 38. Cells were cultured routinely in 75 cm^2 culture flasks (Orange Scientific, Braine l’Alleud, Belgium) at 37 °C (5% CO2) in DMEM cell culture medium (Biosera) supplemented with 10% FBS (Sigma-Aldrich, St. Louis, MO, USA) and 1% L-glutamine. All assay conditions and protocols were identical to those described above for RTL-W1 cells with the exception that incubations were carried out at 37 °C. […]
In general terms: Resazurin is reduced to fluorescent resorufin, in cell work by metabolically active cells.

Series [2] deals with Bacillus mojavensis. Put plainly: Marine bacteria growth assay (disc diffusion). The series is classed as cell-based. The conditions noted are these: 24 h at 25 °C. How it is done:
(§1) The ability of selected metabolites to inhibit the growth of bacteria was assessed using five strains of marine bacteria involved in marine surface biofilm formation, namely, B. subtilis, B. mojavensis, B. thuringiensis, P. putita and P. pseudoalcaligenes. Bacterial strains were maintained on Zobel marine agar plates. Sterile filter paper discs (4 mm) (GF/F; GE Healthcare, Little Chalfont, UK) were loaded with 40 μL samples of serial dilutions of each tested metabolite, allowed to dry at room temperature and then placed on agar plates (Zobel marine agar, pH = 7.3), which were seeded with a single strain of bacteria. Plates were incubated for 24 h at 25 °C. Marine bacteria growth inhibition was determined by measuring the zone of inhibition in mm around the filter paper disc. As a positive and negative control, standard discs were loaded with 40 μL of 0.5 M penicillin G (2 to 10 mm diameter) or solvent (40 μL methanol), respectively.
(In agar diffusion tests the substance spreads into inoculated agar from a disc or well.)

Series [3] deals with Bacillus subtilis. Put plainly: Marine bacteria growth assay (disc diffusion). The class given is cell-based. The conditions noted are these: 24 h at 25 °C. How it is done: as §1
Series [4] deals with Bacillus thuringiensis. Put plainly: Marine bacteria growth assay (disc diffusion). The class given is cell-based. As to conditions: 24 h at 25 °C. How it is done: as §1
Series [5] deals with Pseudomonas pseudoalcaligenes. Nature of the series: Marine bacteria growth assay (disc diffusion). The class given is cell-based. As to conditions: 24 h at 25 °C. How it is done:
as §1

For series [6], the system named is Pseudomonas putita. Put plainly: Marine bacteria growth assay (disc diffusion). The series is classed as cell-based. As to conditions: 24 h at 25 °C. How it is done: as §1
A short description of series [7]: Artemia salina toxicity assay. The conditions noted are these: Artemia salina, in vivo, read-out: EC50 Artemia salina toxicity (mortality). The series is classed as in vivo. How it is done:
The short-term toxicity assay with A. salina nauplii was used to determine the toxicity of secondary metabolites. Hatching of A. salina nauplii was carried out in ASW (35‰) using 0.5 g of cysts incubated in 500 mL seawater at a temperature of 25 ± 1 °C and lateral illumination (1000 Lux). All cysts were kept in continuous suspension with aeration and 24 h later hatched larvae (instar I) were harvested. Toxicity assays were carried out in three independent experiments in 24-well plates with four replicates of each tested concentration. Ten nauplii per well were transferred with a Pasteur pipette into the 24-well plates and each well was filled with 2 mL of ASW and 50 μL of various concentrations of the tested compounds in methanol. Control treatments received 50 μL of methanol. Plates were incubated in the dark at 25 ± 1 °C for 48 h. Mortality was assessed by recording the number of individuals with no movement of their appendages within 10 seconds and is expressed as the percentage of the total number of assessed individuals for each concentration.
For EC50 or IC50 (the concentration that results in 50% stimulation or inhibition relative to the control) calculations in GraphPad Prism v.6, all data were fitted to the curve according to the following models for normalized response: Y = 100/(1 + 10^((X − LogIC50))) or Y = 100/(1 + 10^((LogEC50 − X))) depending on the trend of the curve.

As for `CC(C)[C@@H]1CC=C[C@H]2[C@H]3[C@](C)(CC[C@]12CBr)[C@@H](Br)CC[C@@]3(C)O` [Bromosphaerol, reference compound], a half-maximal response in series [1] (EC50) required 57.6 µM. The “effect on bacterial growth” value in series [2], in series [3], in series [4], in series [5] and in series [6] was “none of these metabolites had any effect” each time.

`CC1=C2CC[C@@](C)(Cl)[C@@H](Br)C[C@]2(C)[C@@H](C)[C@@H](Br)[C@@H]1O` [Compound 9, perforenol]: the LC50 at 24 h in series [7] turned out to be 283 µM. Moreover, in series [7], the LC50 at 48 h was 189 µM. The EC50 in series [1] was 10.8 µM. Besides, the “effect on bacterial growth” value in series [2], in series [3], in series [4], in series [5] and in series [6] was “none of these metabolites had any effect” throughout.

With `C=CC(C)(O)CC[C@@H]1C(=C)CC[C@@H](Br)[C@@]1(C)CCC1OC1(C)C` (some centres unmarked) [Compound 18], in series [7], the LC50 at 24 h was 34.9 µM. The LC50 at 48 h in series [7] is 38.1 µM. The “effect on mitochondrial function and metabolism (in words)” value in series [1] is “very selective against mitochondrial function and metabolism”. For the same compound, the EC50 in series [1] was 0.225 µM. The “effect on bacterial growth” value in series [2], in series [3], in series [4], in series [5] and in series [6] was “none of these metabolites had any effect” throughout.

In the case of `C=C(C1CCC(C)(O)C(Br)C1)C1C(Br)C2C(CCC2(C)O)C1(C)C` (centres unmarked) [Compound 19, neorogioldiol], the LC50 at 24 h in series [7] was determined as 31.5 µM. Besides, the LC50 at 48 h in series [7] turned out to be 304 µM. Moreover, the “effect on mitochondrial function and metabolism (in words)” value in series [1] is “very selective against mitochondrial function and metabolism”. Also, the EC50 in series [1] was determined as 0.062 µM. Also, the “effect on bacterial growth” value in series [2], in series [3], in series [4], in series [5] and in series [6] was “none of these metabolites had any effect” throughout.

The EC50 is the concentration at which the effect is half-maximal.
